In BindingDB's records for doi:10.1021/jm00160a049 (1986):

Target: T1, Renin (Homo sapiens, UniProt P00797)
T1 sequence (P00797 whole entry): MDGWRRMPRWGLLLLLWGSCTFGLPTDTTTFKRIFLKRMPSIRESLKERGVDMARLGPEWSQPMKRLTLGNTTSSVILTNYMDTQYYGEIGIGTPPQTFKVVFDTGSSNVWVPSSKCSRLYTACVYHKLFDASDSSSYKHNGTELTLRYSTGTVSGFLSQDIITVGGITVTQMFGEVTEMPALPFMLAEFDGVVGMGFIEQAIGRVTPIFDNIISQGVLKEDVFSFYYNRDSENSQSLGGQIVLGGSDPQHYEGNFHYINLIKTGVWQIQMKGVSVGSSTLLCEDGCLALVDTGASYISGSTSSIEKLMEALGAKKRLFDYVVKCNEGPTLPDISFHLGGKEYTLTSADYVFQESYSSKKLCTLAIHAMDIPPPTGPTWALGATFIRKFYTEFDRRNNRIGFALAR
Test: ChEBML_195744
From the text: Inhibition of human plasma renin

IC50: 0.65 nM
SMILES: CC[C@H](C)[C@H](NC(=O)[C@@H](C[C@H](O)[C@H](CC(C)C)NC(=O)[C@H](Cc1c[nH]cn1)N(C)C(=O)[C@H](Cc1ccccc1)NC(=O)[C@@H]1CCCN1C(=O)OC(C)(C)C)C(C)C)C(=O)NCc1ccccn1 [2-(1-{[1-(2-Hydroxy-1-isobutyl-5-methyl-4-{2-methyl-1-[(pyridin-2-ylmethyl)-carbamoyl]-butylcarbamoyl}-hexylcarbamoyl)-2-(3H-imidazol-4-yl)-ethyl]-methyl-carbamoyl}-2-phenyl-ethylcarbamoyl)-pyrrolidine-1-carboxylic acid tert-butyl ester]
